For assay [1], the system named is L1210. As to the kind of experiment: In vitro inhibition against replication of L1210 murine cells. Format: functional. To be noted: Mus musculus, read-out: ED50 (the source's name).
Assay [2] concerns Sarcoma-180. The experiment in a line: In vitro inhibition against replication of Sarcoma-80 cells. Format: functional. Particulars: Mus musculus, read-out: ED50 (the source's name).
The target in assay [3] is Deoxycytidine kinase (Mus musculus) (UniProt P43346). As to the kind of experiment: Inhibitory activity against deoxycytidine kinase from L1210 cells. In kind it is cell-based. Also on record: concentration or dose not given beside the values; scale not given: the % may be the effect or the level left.
In assay [4] the target is T1, Thymidine kinase, cytosolic (Mus musculus) (UniProt P04184).
T1 sequence (whole entry): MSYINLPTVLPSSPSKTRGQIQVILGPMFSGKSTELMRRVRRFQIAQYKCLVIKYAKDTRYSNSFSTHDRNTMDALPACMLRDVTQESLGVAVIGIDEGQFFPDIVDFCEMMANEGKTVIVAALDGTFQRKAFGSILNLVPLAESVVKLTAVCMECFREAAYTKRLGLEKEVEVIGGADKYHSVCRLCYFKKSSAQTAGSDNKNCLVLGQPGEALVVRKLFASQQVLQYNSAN
The experiment in a line: Inhibitory activity against thymidine kinase (TK) from L1210 cells. In kind it is cell-based. Also on record: concentration or dose not given beside the values.

Assay [5] deals with Sarcoma-180. The experiment in a line: In vitro inhibition against replication of […] cells; inactive. To be noted: Mus musculus. In kind it is functional, cell-based.
The subject of assay [6] is L1210. The experiment in a line: In vitro inhibition against replication of L1210 murine cells; inactive. Format: functional, cell-based. To be noted: Mus musculus.

Several values for one entry are separate records, joined by “and”; a condition that tells them apart may be missing. Equal entries are not always repeated. Activity calls are given as the source filed them. No cut-off for these calls is given here.

Data on 19 compounds can be found in ChEMBL document CHEMBL1122407, “Synthesis and biological activity of various 3'-azido and 3'-amino analogues of 5-substituted pyrimidine deoxyribonucleosides” (1983).

Sequence of Deoxycytidine kinase (Mus musculus) (P43346 whole entry, looked up): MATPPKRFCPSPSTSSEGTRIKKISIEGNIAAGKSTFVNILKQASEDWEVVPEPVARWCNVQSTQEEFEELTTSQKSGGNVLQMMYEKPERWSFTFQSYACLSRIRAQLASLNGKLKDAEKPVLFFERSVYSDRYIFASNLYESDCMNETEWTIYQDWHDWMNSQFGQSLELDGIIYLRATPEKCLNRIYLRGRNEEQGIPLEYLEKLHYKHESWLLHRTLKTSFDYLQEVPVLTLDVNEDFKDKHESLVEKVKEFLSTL

As to `N[C@@H]1C[C@H](n2cc(C(F)(F)F)c(=O)[nH]c2=O)O[C@@H]1CO`, the values for the EC50 in assay [1] and in assay [2] were 150 µM and 100 µM, respectively. Further, the Activity in assay [3] is 101% and 87%; in assay [4], 81% and 61%.

In the case of `Cc1cn([C@H]2C[C@H](N=[N+]=[N-])[C@@H](CO)O2)c(=O)nc1N`, the ED50 result in assay [5] and in assay [6] was “inactive” each time. Further, the Activity in assay [3] was 62% and 55%; in assay [4] it was 92% and 81%.

As for `Cc1cn([C@H]2C[C@@H](N=[N+]=[N-])[C@@H](CF)O2)c(=O)[nH]c1=O`, the ED50 entry in assay [5] and in assay [6] was “inactive” in each case. In addition, the Activity in assay [3] was 93% and 89%; in assay [4], 93% and 95%.

As for `Nc1nc(=O)n([C@H]2C[C@@H](N)[C@@H](CO)O2)cc1F`, the figures for the EC50 in assay [1] and in assay [2] were 10 µM and 1 µM, respectively. The Activity is 82% and 73% in assay [3]; 81% and 70% in assay [4].

As to `Cc1cn([C@H]2C[C@@H](N)[C@@H](CO)O2)c(=O)nc1N`, the EC50 in assay [1] was 25 µM; in assay [2] it was 20 µM. Also, the Activity is 90% and 82% in assay [3]; 93% and 80% in assay [4].

In the case of `Cc1cn([C@H]2C[C@@H](N)[C@@H](CF)O2)c(=O)[nH]c1=O`, the ED50 result in assay [5] and in assay [6] was “inactive” in each case. The Activity in assay [3] is 91% and 88%; in assay [4] it was 89% and 83%.

Consider `N[C@@H]1C[C@H](n2cc(I)c(=O)[nH]c2=O)O[C@@H]1CO`, for which, in assay [1], the EC50 amounted to 400 µM. Moreover, the Activity in assay [3] was 87% and 91%; in assay [4] it was 95% and 71%.

`[N-]=[N+]=N[C@H]1C[C@H](n2cc(F)c(N)nc2=O)O[C@@H]1CO`: in assay [1], the EC50 was found to be 25 µM. The Activity is 70% and 61% in assay [3]; 88% and 103% in assay [4].

With `Cc1cn([C@H]2C[C@H](N=[N+]=[N-])[C@@H](CO)O2)c(=O)[nH]c1=O`, the Activity in assay [3] was 89% and 84%.

Turning to `Nc1ccn([C@H]2C[C@H](N)[C@@H](CO)O2)c(=O)n1`, the EC50 in assay [1] is 0.7 µM; in assay [2] it was 4 µM. Also, the Activity in assay [3] was 89% and 85%; in assay [4], 77% and 84%.

In the case of `[N-]=[N+]=N[C@H]1C[C@H](n2cc(F)c(=O)[nH]c2=O)O[C@@H]1CO`, the EC50 in assay [1] came to 20 µM; in assay [2] it was 40 µM. Moreover, the Activity in assay [3] is 94% and 89%; in assay [4], 78% and 71%.

For `O=c1[nH]c(=O)n([C@H]2C[C@H](O)[C@@H](CO)O2)cc1I`, the Activity in assay [3] is 87% and 97%.

Consider `N[C@@H]1C[C@H](n2cc(F)c(=O)[nH]c2=O)O[C@@H]1CO`, for which the EC50 was determined as 15 µM in assay [1] and 1 µM in assay [2]. The Activity was 93% in assay [3]; 92% and 82% in assay [4].

Consider `O=c1ccn([C@H]2C[C@H](O)[C@@H](CO)O2)c(=O)[nH]1`, for which the Activity in assay [3] was 88% and 92%.

Consider `Cc1cn([C@H]2C[C@H](N)[C@@H](CO)O2)c(=O)[nH]c1=O`, for which the Activity in assay [3] is 96% and 87%; in assay [4] it was 95% and 72%.

In the case of `[N-]=[N+]=N[C@H]1C[C@H](n2cc(C(F)(F)F)c(=O)[nH]c2=O)O[C@@H]1CO`, the EC50 was found to be 400 µM in assay [1] and 100 µM in assay [2]. The Activity in assay [3] is 91% and 85%.

`[N-]=[N+]=N[C@H]1C[C@H](n2ccc(=O)[nH]c2=O)O[C@@H]1CO`: the ED50 entry in assay [5] and in assay [6] was “inactive” throughout. Also, in assay [3], the Activity was 92%.

With `N[C@H]1C[C@H](n2ccc(=O)[nH]c2=O)O[C@@H]1CO`, the EC50 in assay [1] is 18 µM; in assay [2], 50 µM. For the same compound, the Activity in assay [3] is 97% and 94%.

In the case of `[N-]=[N+]=N[C@H]1C[C@H](n2ccc(N)nc2=O)O[C@@H]1CO`, the ED50 entry in assay [5] and in assay [6] was “inactive” each time. The Activity is 86% and 78% in assay [3]; 85% and 72% in assay [4].
